Source: US11672828B2, “Cellular receptors and uses thereof” (TRUSTEES OF BOSTON UNIVERSITY, priority 2020, dated 2023)
Entries after “also recorded” stand apart in the source; their conditions may differ.

Legend:
apSyN = assay: Plated ligand assay, apSyN (AP-SynNotch) cells with UAS:H2B-mCherry reporter; assay type: cell-based; details: for reporter (mCherry) activation by plated ligand: apSyN/AP-SynNotch cells with or without BirA-ER (BirA-KDEL)
Description: In order to determine if the apSyN could undergo predicted signaling mechanics of extracellular binding and intracellular domain release based on the presence of the PTM, we used an established Notch signaling assay23 (FIG. 2A). […] We instead interrogated the signaling capabilities by coating tissue culture wells with an anti-Biotin antibody that is specific for biotinamide24.
Next to be evaluated were the signaling properties of AP-SynNotch. Here, the activity of the receptor in response to different ligands was compared in cells with and without BirA-KDEL. Using a receptor containing a Gal4-VP64 ICD, the signaling activity of AP-SynNotch was measured in transfected HEK293 cells containing a stably-integrated reporter gene (UAS:H2B-mCherry). In order to stimulate receptor activation, transfected cells were grown on culture surfaces containing immobilized ligands, and reporter expression levels were measured the next day using flow cytometry (FIG. 11D).

antiBiot synthetic Notch = assay: Plated ligand assay, antiBiot synthetic Notch (Anti-Biotinamide SynNotch) cells; details: soluble ligand introduced at the time of plating
Description: We first asked if this synthetic receptor cell line could activate to various ligands coated on a 96 well plate.
Nontreated 96-well plates were coated with Fibronectin (5 ng/mL) and plated ligand in 50 μL PBS for 1-hr. Initial experiments were done with a serial dilution of ligand to determine working concentrations. The wells were rinsed three times with 200 μL PBS, and 40 k synthetic Notch receiver cells were plated in each well. Receptor activation was measured 24 hr post-plating via fluorescence microscopy or flow cytometry.
Cells analyzed with an Attune NxT flow cytometer and were gated for living cells by scatter detection. The percent activation was determined by calculating the percentage of cells with mCherry expression levels above a certain threshold.
Nontreated 96-well plates were coated with Fibronectin (5 ng/mL) and plated ligand in 50 μL PBS for 1 hr. […] Receptor activation was measured 24 hr post-plating via fluorescence microscopy or flow cytometry.
Flow Cytometry Cells analyzed with an Attune NxT flow cytometer and were gated for single cells by scatter detection (FIGS. 19A-19C). Output files were analyzed with a custom MATLAB (Mathworks) script. The percent activation was determined by calculating the percentage of cells with mCherry expression levels above a determined threshold using the non-transfected control as a guide.

anti-Biotin ligand = assay: Coculture luciferase assay, apSyN/BirA receiver cells with anti-Biotin ligand sender cells, soluble competitors; assay type: cell-based; details: different concentrations of the molecules in coculture
Description: To examine this behavior more quantitatively, we used an established luciferase-based coculture assay28. Receptor cells were transfected with a luciferase reporter plasmid, and ligand expressing cells were added the next day. Finally cells were lysed after one day of coculturing to examine the luminescence due to luciferase expression (FIG. 3C).
We also saw a similar ability to control activation with small molecules in this coculture assay. […] We sought to develop an inhibition method that is specific for this pathway and therefore allow for additional control of signaling without disrupting native pathways. […] We used the previously established coculture assay while culturing cells in different concentrations of the described molecules and then analyzed the corresponding luciferase expression.
(§1) The luciferase assay used for coculture studies was adapted from Gordon et al28. Synthetic Notch receiver cells were reverse transfected in a 96-well plate (50 k cells per well) with 9.9 ng of UAS:Firefly-Luciferase plasmid and 0.1 ng Nanoluc plasmid per well. 24 hr post-transfection, 80 k sender cells were added to each well. 48 hr post-transfection, cells were lysed (Nano-Glo Dual-Luciferase Reporter Assay System, Promega) and the luminescence was found following the manufacturer's instructions. Each well was normalized to the luminescence output of Nanoluc (transfection control).
Tight-regulation is a requirement of cell-engineered systems in biomedical applications, and such control can be achieved by combining genetic strategies with external drug-control. Thus, it was next sought to design exogenous molecules that could be combined with the present encodable components in order to achieve versatile “chemogenetic” control. Soluble binding proteins can be used to block trans-cellular interactions between endogenous Notch receptors and ligands. It was tested whether soluble biotin-derived compounds could be used to competitively interact between our synthetic ligand and receptor (FIG. 12G). […] In addition to their selective recognition by Anti-Biotinamide, the cell-impermeant nature of biocytin and bis-biotinamide offer the advantageous feature of limiting disruption/inhibition to cell-surface presented components.
as §1, with “al^59.” for “al28.”, “24 hr post-transfection, 80 k sender cells were added to each well.” left out, “(Nano-Go” for “(Nano-Glo”

scFab-Gal4 and AP-VP64 = assay: UAS:H2B-mCherry reporter cells with scFab-Gal4, AP-VP64 and BirA, treated with soluble biotinamides; assay type: cell-based; details: varying concentrations, compared with biocytin
Description: Reporter HEK293 cells with an integrated UAS:H2B-mCherry construct were transfected with a construct containing constitutive expression of AP-VP64 and AntiBiotinamide-scFAB-Gal4. The cells were cotransfected with a construct containing Citrine-HA-BirA. At the time of transfection, samples were incubated with different concentrations of Biocytin and Biotin-cadaverine. Samples were measured the next day with flow cytometry, gating for Citrine expression.
Lastly, it was asked whether intracellular protein complexes could be disrupted using exogenously applied biotinamide. To test this possibility, cells were treated with biocytin as well as biotin-cadaverine, a membrane-permeant biotinamide derivative (6). To measure the disruption of intracellular complexes, BirA was co-expressed alongside scFab-Gal4 and AP-VP64 in UAS:H2B-mCherry reporter cells, and the extent of mCherry expression was quantified from cells treated with varying concentrations of biocytin and biotin-cadaverine (FIG. 18A).

avidin = details: avidin-based systems; cited from earlier work
[1] = test system: anti-FITC Synthetic Notch; assay: Coculture of anti-FITC Synthetic Notch cells and anti-biotin ligand cells with biotin-FITC linker (Luciferase reporter); assay type: cell-based; details: FIG. 20
Description: FIG. 20 depicts graphs in which the x-axis of the plot is the biotin-FTC concentration, the y-axis is the extent of signaling (via a Luciferase reporter). The legend gives two different sender-cells used in the coculture—one with the anti-biotin ligand, and one without.
Described herein is the use of biotin-FITC as a small-molecule linker with the ability to induce trans-cellular signaling. In this coculture system, a first group of cells expressed an anti-FITC Synthetic Notch, which can bind one end of the biotin-FITC, and a second group of cells expressed an anti-biotin ligand (described in other Examples herein), which binds the other end.

[2] = test system: Anti-Biotinamide SynNotch; assay: Anti-Biotinamide SynNotch cells on TCO-BSA coated wells with added biotin-tetrazine, flow cytometry; assay type: cell-based
Description: (FIG. 13A). Receptors that are specific to biotinamide process inputs dependent on the biotinylation state of the ligand. (FIG. 13B). Anti-Biotinamide SynNotch expressing cells activate to both biotin-based and desthiobiotin-based substrates. The cells activate with slightly less adsorbed biotin than desthiobiotin. (FIG. 13C). Cells expressing Anti-Biotinamide SynNotch were cocultured with cells transfected with an AP-tagged cell surface ligand with or without BirA, or non-transfected cells. (FIG. 13D). Biotin-tetrazine (4) is a bispecific molecule that will bind to the Anti-Biotinamide antibody fragment and TCO-(5), which is conjugated to BSA. (FIG. 13E). Anti-Biotinamide SynNotch expressing cells cultured on TCO-conjugated BSA will bind to exogenously added biotin-tetrazine. (FIG. 13F). Anti-Biotinamide SynNotch expressing cells were cultured on wells coated with TCO-BSA and one day later, biotin-tetrazine was added at different concentrations to the wells. At two days after plating, cellular fluorescence was analyzed with flow cytometry.
In an effort to develop synthetic agonists, a bioorthogonal chemical ligation was also exploited in order to convert a soluble biotin derivative into an immobilized (signaling competent) ligand in situ. […]

[3] = free biotin versus biotin with an amide linker; cited from earlier work

Molecule: Neutravidin: adsorbed biotin-binding protein
- reporter (mCherry) activation by plated ligand (apSyN): able to activate apSyN cells, but has decreased activation at higher concentrations
- reporter (mCherry) activation by plated ligand (apSyN; listed as neutravidin): can activate the biotinylated receptor

Molecule: N[C@@H](CCCCNC(=O)CCCC[C@@H]1SC[C@@H]2NC(=O)N[C@@H]21)C(=O)O [biocytin]
- concentration at which activation was lowered (antiBiot synthetic Notch): 3 µM
- inhibition of cell signaling (luciferase) by competitive binding to the ligand (anti-Biotin ligand): able to inhibit cell signaling to some degree; also recorded: act as inhibitors of signaling

Molecule: biotin-cadaverine
- inhibition of intracellular biotin-dependent reporter (mCherry) expression (scFab-Gal4 and AP-VP64): more sensitive
- inhibition of intracellular biotin-dependent reporter (mCherry) expression (scFab-Gal4 and AP-VP64; listed as Biotin-cadaverine): effective competitive inhibitor

Molecule: C[C@@H]1NC(=O)N[C@@H]1CCCCCC(=O)O [desthiobiotin]
- binding constant, fold less than biotin (avidin): 106 fold

Molecule: O=C(O)CCCC[C@@H]1SC[C@@H]2NC(=O)N[C@@H]21 [biotin]
- inhibition of cell signaling (luciferase) by competitive binding to the ligand (anti-Biotin ligand): limited impact on cell signaling

Molecule: bis-biotinamide
- inhibition of cell signaling (luciferase) by competitive binding to the ligand (anti-Biotin ligand): more potent inhibition
- inhibition of cell signaling (luciferase) by competitive binding to the ligand (anti-Biotin ligand; listed as Bis-biotinamide): increased ability to inhibit cell activation; also recorded: inhibits more effectively

Molecule: biotin-FITC
- signaling capacity versus concentration [1]: low concentrations do not induce signaling, and high concentrations lead to lower signaling

Molecule: C[C@H](NC(=O)Cc1cc(F)cc(F)c1)C(=O)N[C@H](C(=O)OC(C)(C)C)c1ccccc1 [DAPT]
- effect of Notch pathway (γ-secretase) inhibitor on mCherry expression (apSyN; plated anti-Biotin or anti-myc antibody): ablated mCherry expression in all cases

Molecule: biotin-tetrazine
- reporter activation ([2]; biotin-tetrazine added one day after plating on TCO-BSA): able to activate reporter expression only when cultured with biotin-tetrazine
- inhibition of receptor activation ([2]; high concentrations of biotin-tetrazine): inhibited with high concentrations

B1: biotinamide-specific antibody: antibody from which the anti-biotinamide single chain variable fragment was developed (antibody)
heavy: EVQLQQSGAELVKPGASVKLSCTSSGFNNKDTFFQWVKQRPEEGLEWIGRIDPANGFTKYDPKFQGKATITVDTSSNTAYLQLNSLTSEDTALYYCTRWDTYGAAWFAYWGQGTLVTVSAAKTTPPSVYPLAPGSAAQTNSMVTLGCLVKGYFPEPVTVTWNSGSLSSGVHTFPAVLQSDLYTLSSSVTVPSSTWPSETVTCNVAHPASSTKVDKKIVPR
light: DIQMTQSPASLSASVGETVTITCRASGNIHNYLSWFQQKQGKSPQLLVYSAKTLADGVPSRFSGSGSGTQYSLKINSLQPEDFGTYYCQHFWSSIYTFGGGTKLEIKRADAAPTVSIFPPSSEQLTSGGASVVCFLNNFYPKDINVKWKIDGSERQNGVLNSWTDQDSKDSTYSMSSTLTLTKDEYERHNSYTCEATHKTSTSPIVKSFNRNEC
- binding specificity [3]: does not bind to free biotin but binds to biotin with an amide linker
